Patent publication US20240252463A1, “METHODS OF TREATING FIBROTIC PATHOLOGIES” (Mayo Foundation for Medical Education and Research, priority 2018, published 2024)

Legend:
[1] = tested on: IMR-90 cells and IPF Patient-Derived Lung fibroblasts; test: Proliferation and apoptosis-factor expression of lung fibroblasts; assay type: cell-based, human
Protocol: IPF fibroblast and Normal lung fibroblast co-culture proliferation. Cell are pre-labelled with fluorescent dyes (red and green) and then co-cultured at a Ratio of 1:1 in 96 well plates. Cell counts are determined every 24 hours and plotted as a ratio of IPF/HLF cells. In the control wells the IPF cells outgrow and take over the well. N=2.
Proliferation of lung fibroblasts (IMR-90 cells and IPF Patient-Derived Lung fibroblasts) measured for 4 days in the presence of GPCR agonists ET-1 (100 nM) and LPA (10 μM) (32A, 32B) or growth factors TGFβ (2 ng/mL) and CTGF (100 ng/mL) (32C, 32D)+/−10M DHX. Cells were fixed and counted with DAPI at the end of each day. N=3 technical triplicates. RNA Expression of pro-apoptotic factor BIM (32E, 32F) and anti-apoptotic factor BCL2 (32G, 32H) was assessed following 24 treatment with DHX (10 μM). N=4.

YAP/TAZ target genes = test: YAP/TAZ target gene expression in flow-sorted lung cells of bleomycin-injured mice; assay type: in vivo, mouse; settings: bleomycin day 10, two doses of DHX (2 and 24 hours prior to collecting lungs)
Protocol: 29A. Two groups of mice were injured intratracheally with bleomycin at day 0, on day 10 one group received two doses of DHX (2 and 24 hours prior to collecting lungs) and the other received vehicle control. On day 11 lungs were collected to flow sort fibroblasts, epithelial, and endothelial cells. 29B. Changes in RNA expression of YAP/TAZ target genes from freshly isolated cells.
Cell Sorting: FACS: PBS perfused mouse lungs were finely minced with a razor blade in a 100 mm petri dish in 1 mL of cold DMEM medium containing 0.2 mg ml^−1 Liberase DL (Roche) and 100 U ml^−1 DNase I (Roche). The mixture was transferred to 15 ml tubes and incubated at 37° C. for 30 min in a water bath. Enzymatic digestion was inactivated by adding DMEM medium containing 10% fetal bovine serum. The cell suspension was passed once through a 40 µm cell strainer (Fisher) to remove multicellular debris. Cells were then centrifuged at 1,300 r.p.m. at 4° C. for 10 min, washed once in PBS and resuspended in 0.2 ml of FACS buffer (1% BSA, 0.5 μM EDTA pH 7.4 in PBS). The single cell suspension was then incubated with anti-CD45-PerCp-Cy5.5, anti-CD31-PE, anti-PDGFRα-APC and anti-EpCAM-BV421 antibodies (1:200) (Biolegend) for 20 min on ice. After incubation, cells were washed with ice-cold FACS buffer and resuspended in 1 ml of FACS buffer. FACS sorting was conducted using a BD FACS Aria II (BD Biosciences). […]

TAZ4SA = test: Gene expression and ECM deposition in NIH-3T3 cells expressing constitutively active mutant TAZ (TAZ4SA); assay type: cell-based, mouse; settings: doxycycline-induced TAZ4SA NIH-3T3
Protocol: FIGS. 8A-8B DHX inhibition of pro-fibrotic gene expression and matrix deposition requires inhibition of YAP/TAZ. […] TAZ4SA expression was induced with 100 ng/mL doxycycline for 72 hours prior to treatment with 10 μM or the indicated concentration of dihydrexidine. For gene expression experiments efficacy of DHX in NIH-3T3 cells was validated with by DHX (10 μM) effect on TGFβ (24 hour, 2 ng/mL) induced gene expression. N=2 for all.
Cell culture: Cells were all maintained in EMEM (ATCC) containing 10% FBS, unless otherwise noted. IMR-90 embryonic lung fibroblasts and NIH-3T3 mouse fibroblasts were purchased from ATCC. Doxycycline-inducible Tet-On NIH3T3 expressing TAZ4SA or control empty vector were described previously. Normal Human Alveolar Epithelial Cells (NHAEpCs), Normal Human Microvascular Endothelial Cells (NHMVECs), Normal Human Lung Fibroblasts (NHLFs), and Human Dermal Fibroblasts (HDFs) were purchased from Lonza and were cultured in the proprietary media per Lonza's recommendation. Human Adult Cardiac Fibroblasts (HACFs) and Hepatic Stellate Cells (HSCs) were purchased from ScienCell and were cultured in the proprietary media per ScienCell's recommendation. Hepatocytes were purchased from Samsara and were cultured in the proprietary media per Samsara's recommendation. […]

## Oc1cc2c(cc1O)[C@H]1c3ccccc3CN[C@@H]1CC2 (racemic) [Dihydrexidine, dihydrexidine]
[1]; 24 treatment with DHX (10 μM)
  RNA expression of pro-apoptotic BIM and anti-apoptotic BCL2: primes lung fibroblasts for apoptosis
[1]; 4 days, with ET-1, LPA, TGFβ or CTGF +/−10M DHX
  proliferation of lung fibroblasts: blocks proliferation
YAP/TAZ target genes
  expression of YAP/TAZ target genes in freshly isolated lung fibroblasts, epithelial and endothelial cells: selectively blocks expression of YAP/TAZ target genes in lung fibroblasts in vivo
TAZ4SA
  profibrotic gene expression and extracellular matrix accumulation in TAZ4SA cells: had no effect on profibrotic gene expression or extracellular matrix accumulation
